Results taken from patent publication US8927580B2, “Thiosemicarbazone compounds and use in the treatment of cancer” (Oncochel Therapeutics LLC, priority 2010, dated 2015).
Counter-ions that a name gives are not always drawn. Values belong to the molecule of their own block, whether it stands above or below them.

Tests used:
[1] = test system: MIAPaCa-2 pancreatic cancer cells; assay: MTT proliferation assay, MIAPaCa-2; assay type: cell-based; details: Homo sapiens, MIA PaCa-2; MIAPaCa-2, MTT, 72 h
Method: (§1) The pancreatic cancer cell lines, including MIAPaCa-2, PANC 1, CAPAN-2 and CFPAC-1 were a generous gift from Prof. Andrew Biankin (Garvan Institute, NSW, Australia). The MIAPaCa-2, PANC 1 and CFPAC-1 cell lines were grown in DMEM medium (Invitrogen) and CAPAN-2 cells were grown in McCoy's medium (Invitrogen). All media was supplemented with 10% (v/v) fetal calf serum (Invitrogen), 1% (v/v) non-essential amino acids (Invitrogen), 1% (v/v) sodium pyruvate (Invitrogen), 2 mM L-glutamine (Invitrogen), 100 μg/mL of streptomycin (Invitrogen), 100 U/ml penicillin (Invitrogen), and 0.28 μg/mL of fungizone.
(§2) To further examine the spectrum of anti-proliferative activity, Dp4cycH4mT was tested against pancreatic cancer in vitro, performing MTT proliferation assays with PANC 1, MIAPaCa-2, CFPAC-1 and CAPAN-2 pancreatic cancer cells. As a comparison, currently used treatments for pancreatic cancer including gemcitabine and 5-fluorouracil were also tested. The iron chelator, DFO, was included as a positive control.
(§3) Table 2A. Anti-proliferative activity of Dp4cycH4mT against pancreatic cancer cell lines. Growth and antiproliferative activity IC50 (μM) values of Dp4cycH4mT in a variety of pancreatic cell lines and in comparison to DFO and the clinically used drugs gemcitabine and 5-fluorouracil as determined by the MTT assay. Cells were seeded and allowed to attach to wells for 24 h and then incubated for 72 h at 37° C. with control medium or the chelators. Results are mean±SD (3 experiments).
as §3, with “2B.” for “2A.”, “IC90” for “Growth and antiproliferative activity IC50”

[2] = test system: PANC 1 pancreatic cancer cells; assay: MTT proliferation assay, PANC 1; assay type: cell-based; details: Homo sapiens; PANC 1, MTT, 72 h
Method: as §1, §2, §3
as §3, with “2B.” for “2A.”, “IC90” for “Growth and antiproliferative activity IC50”

[3] = test system: CAPAN-2 pancreatic cancer cells; assay: MTT proliferation assay, CAPAN-2; assay type: cell-based; details: Homo sapiens; CAPAN-2, MTT, 72 h
Method: as §1, §2, §3
as §3, with “2B.” for “2A.”, “IC90” for “Growth and antiproliferative activity IC50”

[4] = test system: CFPAC-1 pancreatic cancer cells; assay: MTT proliferation assay, CFPAC-1; assay type: cell-based; details: Homo sapiens; CFPAC-1, MTT, 72 h
Method: as §1, §2, §3
as §3, with “2B.” for “2A.”, “IC90” for “Growth and antiproliferative activity IC50”

[5] = test system: SK-N-MC neuroepithelioma cell line; assay: MTT anti-proliferative assay in SK-N-MC cells; assay type: cell-based, human; details: 72 h at 37° C., mean±SD (3 experiments)
Method: The cells were maintained in minimum essential media (MEM; Invitrogen, CA, USA) which contained 10% fetal calf serum (FCS; JRH Biosciences, Kansas, USA), 1% non-essential amino acids (Gibco, Victoria, Australia), 1% penicillin/streptomycin/glutamine (Gibco, VIC, Australia) and fungizone ([…]; Squibb Pharmaceuticals, Montreal, Canada).
The ability of the compounds to inhibit cellular proliferation was assessed initially in SK-N-MC cells by the MTT assay.
Table 1. […] Cells were seed and allowed to attach to wells for 24 h and then incubated for 72 h at 37° C. with control medium or the chelators.

[6] = test system: SK-N-MC neuroepithelioma cells; assay: Iron efflux assay (59Fe release from pre-labeled cells); assay type: cell-based, human; details: 25 μM chelator, 3 h at 37° C.
Method: The culture dishes were then placed on ice, the supernatant containing excess ^59Fe-Tf was aspirated and the cells washed 4 times with ice-cold PBS. […] After 3 h the culture dishes were again placed on ice, the media was collected in counting tubes and this provided a measurement of released ^59Fe. Ice-cold PBS (1 mL) was added to plates containing cells and cells were scraped from the plastic surface using a Teflon spatula and also collected in counting tubes. These tubes represent the intracellular ^59Fe content. Results are expressed as total ^59Fe released as a percentage of total ^59Fe present. Radioactivity was measured using a Wallac Wizard 3″ Gamma Counter (PerkinElmer, MA, USA).

[7] = test system: SK-N-MC neuroepithelioma cells; assay: Iron uptake assay (59Fe uptake from 59Fe-transferrin); assay type: cell-based, human; details: 25 μM chelator, 3 h at 37° C., 59Fe-Tf
Method: Cells were cultured in the same way as for the iron efflux experiments. […] At the end of the incubation the culture dishes were placed on ice, the media aspirated, and the cells washed 4 times with ice cold PBS. Protease (1 mL; 1 mg/mL; Sigma-Aldrich, NSW, Australia) solution was added to each plate and allowed to incubate on ice for 30 min. This facilitated the removal of membrane bound ^59Fe-Tf. Cells were then scraped from the plastic surface using a Teflon spatula and collected in Eppendorf tubes. These were centrifuged at 10000 rpm and 4° C. for 3 min. The supernatant was then transferred into counting tubes and the cell pellet resuspended in PBS before also being transferred into another set of counting tubes. Radioactivity was measured using a Wallac Wizard 3″ Gamma Counter (PerkinElmer, MA, USA). Results are expressed as average ^59Fe content of the cellular fraction as a percentage of the control value.

[8] = test system: PANC 1 human pancreatic carcinoma; assay: PANC 1 xenograft in nude mice: tumour growth; assay type: in vivo, nude mice (BALBc nu/nu)
Method: FIG. 5). […] (5 mg/kg) or vehicle control.

[9] = mouse, in vivo
[10] = test system: DMS-53 human lung carcinoma; assay: DMS-53 xenograft in nude mice, i.v. administration: tumour growth; assay type: in vivo, nude mice (BALBc nu/nu)
[11] = DMS-53 xenograft i.v. study: body and organ weights, haematology, histology; assay type: in vivo, nude mice (BALBc nu/nu); details: for HCT / HGB / PLT / RBC / WBC / Body weight (% of initial weight) / Brain weight / Heart weight / Kidney weight / Liver weight / Spleen weight / weight loss (% of initial body weight): i.v.; for HCT / HGB / PLT / RBC / WBC: average; for weight loss (% of initial body weight): after 25 days
[12] = test system: DMS-53 human lung carcinoma; assay: DMS-53 xenograft in nude mice, oral gavage: tumour growth; assay type: in vivo, nude mice (BALBc nu/nu); details: for Tumour weight: 21 days; for net tumour size (% of initial tumour volume): after 21 days
[13] = DMS-53 xenograft oral study: body and organ weights, haematology, biochemistry, histology; assay type: in vivo, nude mice (BALBc nu/nu)

- IC50 [1]: 24.3 ± 6.3 µM
- IC90 [1]: > 5 µM
- IC50 [2]: 62.3 ± 6.5 µM
- IC90 [2]: > 20 µM
- IC50 [3]: 59.2 ± 24.2 µM
- IC90 [3]: > 80 µM
- IC50 [4]: 41.2 ± 1.1 µM
- IC90 [4]: > 40 µM
Compound: O=c1[nH]cc(F)c(=O)[nH]1 [5-fluorouracil]

Compound: CC(=O)N(O)CCCCCNC(=O)CCC(=O)N(O)CCCCCNC(=O)CCC(=O)N(O)CCCCCN [DFO, desferrioxamine]
- IC50 ([5]; Homo sapiens): 13.4 ± 3.7 µM
- IC50 [1]: 38.7 ± 6.2 µM
- IC90 [1]: > 80 µM
- IC50 [2]: 9.5 ± 1.4 µM
- IC90 [2]: > 80 µM
- IC50 [3]: 7 ± 5.4 µM
- IC90 [3]: > 80 µM
- IC50 [4]: 14.7 ± 3.1 µM
- IC90 [4]: > 80 µM
- cellular 59Fe mobilised (59Fe released as percentage of total 59Fe) [6]: 16%
- cellular 59Fe uptake (% of the control) [7]: 84%

- MYOCARDIUM Fibrosis [9]: −
- MYOCARDIUM HP (histopathological changes) [9]: N
- SPLEEN HPC (score for the presence of haematopoietic cells in the splenic red pulp) [9]: N
- iron deposits in the kidney [9]: iron deposits were observed
Compound: CN(C(=S)NN=C(c1ccccn1)c1ccccn1)C1CCCCC1 [Dp4cycH4mT.HCl, di-2-pyridylketone 4-cyclohexyl-4-methyl-3-thiosemicarbazone]
- average tumour size (% of the original tumour size) ([8]; after 6 weeks, 5 mg/kg i.v. 5 days/week): 112%
- final tumour weight ([8]; after 43 days, 5 mg/kg i.v.): 40 ± 12 mg

- histology of the liver, spleen, kidney, brain or tumour (H & E) vs control ([11]; 2 weeks i.v., Dp44mT 0.75 mg/kg, Dp4e4mT.HCl 4 and 6 mg/kg): no significant differences
- myocardial lesions (Gomori-Trichrome stain) ([11]; 2 weeks i.v., Dp44mT 0.75 mg/kg, Dp4e4mT.HCl 4 or 6 mg/kg): did not induce myocardial lesions
- change in red blood cell count, haemoglobin or white blood cell count ([11]; after 2 weeks, Dp44mT 0.75 mg/kg, Dp4e4mT.HCl 1.5, 4 or 6 mg/kg i.v.): no significant change
- HCT ([11]; 1.5 mg): 0.4
- HGB ([11]; 1.5 mg): 150.60 g/L
- PLT ([11]; 1.5 mg): 766.4 10 × 9 cells/L
- RBC ([11]; 1.5 mg): 8.76 10 × 12 cells/L
- WBC ([11]; 1.5 mg): 3.34 10 × 9 cells/L
- Brain weight ([11]; 1.5 mg/kg): 0.26 ± 0.13 g
- Heart weight ([11]; 1.5 mg/kg): 0.1 ± 0.004 g
- Kidney weight ([11]; 1.5 mg/kg): 0.26 ± 0.01 g
- Liver weight ([11]; 1.5 mg/kg): 1.01 ± 0.02 g
- Spleen weight ([11]; 1.5 mg/kg): 0.11 ± 0.01 g
- HCT ([11]; 4 mg): 0.47
- HGB ([11]; 4 mg): 153.75 g/L
- PLT ([11]; 4 mg): 1224.5 10 × 9 cells/L
- RBC ([11]; 4 mg): 10.74 10 × 12 cells/L
- WBC ([11]; 4 mg): 2.94 10 × 9 cells/L
- Brain weight ([11]; 4 mg/kg): 0.36 ± 0.01 g
- Heart weight ([11]; 4 mg/kg): 0.1 ± 0.01 g
- Kidney weight ([11]; 4 mg/kg): 0.26 ± 0.01 g
- Liver weight ([11]; 4 mg/kg): 1.03 ± 0.02 g
- Spleen weight ([11]; 4 mg/kg): 0.08 ± 0.003 g
- HCT ([11]; 6 mg): 0.41
- HGB ([11]; 6 mg): 132.33 g/L
- PLT ([11]; 6 mg): 1238 10 × 9 cells/L
- RBC ([11]; 6 mg): 9.33 10 × 12 cells/L
- WBC ([11]; 6 mg): 4.63 10 × 9 cells/L
- Brain weight ([11]; 6 mg/kg): 0.36 ± 0.03 g
- Heart weight ([11]; 6 mg/kg): 0.11 ± 0.01 g
- Kidney weight ([11]; 6 mg/kg): 0.27 ± 0.01 g
- Liver weight ([11]; 6 mg/kg): 1.1 ± 0.08 g
- Spleen weight ([11]; 6 mg/kg): 0.089 ± 0.01 g
- myocardial lesions (Gomori-Trichrome stain) ([13]; Dp44mT 0.75 mg/kg, Dp4e4mT.HCl 3 weeks at 2.5, 5, 7.5 and 10 mg/kg oral): did not induce myocardial lesions
- histology of the liver, spleen, kidney, brain or tumour (H & E) vs control ([13]; Dp44mT 2 weeks at 0.75 mg/kg, Dp4e4mT.HCl 3 weeks at 2.5, 5, 7.5 and 10 mg/kg oral): no significant differences
- Total Iron-Binding Capacity (TIBC) ([13]; oral gavage 21 days, 5 mg/kg): 53.1 ± 1.2 µmol/L
- Alkaline Phosphatase (ALP) ([13]; oral gavage 21 days, 10 mg/kg): 89.5±4.5 U/L
Compound: CCN(C)C(=S)NN=C(c1ccccn1)c1ccccn1 [Dp4e4mT.HCl, di-2-pyridylketone 4-ethyl-4-methyl-3-thiosemicarbazone]
- Tumour weight ([10]; 1.5 mg/kg): 0.48 ± 0.6 g
- Tumour weight ([10]; 4 mg/kg): 0.11 ± 0.09 g
- Tumour weight ([10]; 6 mg/kg): 0.04 ± 0.03 g
- Body weight (% of initial weight) ([11]; 1.5 mg/kg): 95.14 ± 0.97 % initial weight
- Body weight (% of initial weight) ([11]; 4 mg/kg): 99.41 ± 1.75 % initial weight
- weight loss (% of initial body weight) ([11]; 4 mg/kg): 0.6%
- Body weight (% of initial weight) ([11]; 6 mg/kg): 93.38 ± 3.96 % initial weight
- weight loss (% of initial body weight) ([11]; 6 mg/kg): 7%
- Tumour weight ([12]; 2.5 mg/kg): 0.63 g
- net tumour size (% of initial tumour volume) ([12]; 2.5 mg/kg): 645%
- net tumour size (% of initial tumour volume) ([12]; 5 mg/kg): 733%
- Tumour weight ([12]; 10 mg/kg): 0.46 g
- Body weight (% initial) ([13]; oral, 10 mg/kg): 94 % initial

- IC50 [5]: 0.72 ± 0.32 µM
Compound: O=C(NN=Cc1c(O)ccc2ccccc12)c1ccncc1 [compound 311, 2-hydroxy-1-naphthylaldehyde isonicotinoyl hydrazone, reference compound]
- cellular 59Fe uptake (% of the control) [7]: 5%
